This passage reports relative viability results from the supplement of paper PMC10307832.

Common to all, as to experiment: relative viability (nuclei count vs DMSO), 5 days (fraction); higher = more cells survive
Compound in experiment [1]: Cc1ccc(C(=O)Nc2cccc(C(F)(F)F)c2)cc1Nc1cncc(C(N)=O)c1 [ALW-II-49-7] + O=C(c1cc(Cc2n[nH]c(=O)c3ccccc23)ccc1F)N1CCN(C(=O)C2CC2)CC1 [Olaparib] (partner 8 µM)
The gist of the method: (§1)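 Lung cancer cell lines in 1536-well plates got either a single drug or a fixed anchor-drug dose together with five library-drug doses (not always all listed) in √10 steps, by pin tool, on the day after seeding. Nuclei were counted after 5 days, and relative viability is the treated-to-vehicle ratio of nuclei counts. Values are medians of duplicate plates.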

Compound in experiment [2]: C1CC1C(=O)NC2=NNC3=C2C=CC(=C3)C4=CC(=CC=C4)C(=O)NC5CC5 [XMD13-2] + COc1cc2c(Oc3ccc(NC(=O)C4(C(=O)Nc5ccc(F)cc5)CC4)cc3F)ccnc2cc1OCCCN1CCOCC1 [Foretinib] (partner 0.25 µM)
The gist of the method:
as §1

Compound in experiment [3]: Cc1nc(Nc2ncc(C(=O)Nc3c(C)cccc3Cl)s2)cc(N2CCN(CCO)CC2)n1 [Dasatinib] + COc1cccc2cc(-c3nc([C@H]4CC[C@H](C(=O)O)CC4)n4ncnc(N)c34)[nH]c12 [OSI-027] (partner 0.5 µM)
In outline:
as §1

Compound in experiment [4]: Cc1nc(Nc2ncc(C(=O)Nc3c(C)cccc3Cl)s2)cc(N2CCN(CCO)CC2)n1 [Dasatinib] + CC1(C)CCC(c2ccc(Cl)cc2)=C(CN2CCN(c3ccc(C(=O)NS(=O)(=O)c4ccc(N[C@H](CCN5CCOCC5)CSc5ccccc5)c(S(=O)(=O)C(F)(F)F)c4)cc3)CC2)C1 [Navitoclax] (partner 0.5 µM)
In outline:
as §1

Take NCI-H2405: the relative viability amounted to 0.856 in experiment [1] (first compound 0.08 µM); 0.97 in experiment [1] (first compound 0.253 µM); 0.86 in experiment [1] (first compound 0.8 µM); 0.811 in experiment [1] (first compound 2.53 µM); 0.785 in experiment [1] (first compound 8 µM); 1.09 in experiment [2] (first compound 0.05 µM). In addition, the relative viability turned out to be 1 in experiment [2] (first compound 0.1581 µM); 1.09 in experiment [2] (first compound 0.5 µM); 1.06 in experiment [2] (first compound 1.581 µM); 1.04 in experiment [2] (first compound 5 µM); 0.581 in experiment [3] (first compound 0.005 µM); 0.418 in experiment [3] (first compound 0.01581 µM). The relative viability worked out at 0.353 in experiment [3] (first compound 0.05 µM); 0.245 in experiment [3] (first compound 0.1581 µM); 0.161 in experiment [3] (first compound 0.5 µM); 0.684 in experiment [4] (first compound 0.005 µM); 0.424 in experiment [4] (first compound 0.01581 µM); 0.254 in experiment [4] (first compound 0.05 µM). Besides, the values for the relative viability in experiment [4] (first compound 0.1581 µM) and in experiment [4] (first compound 0.5 µM) were 0.165 and 0.116, respectively.

Take NCI-H3122: the relative viability in experiment [1] (first compound 0.08 µM) was determined as 0.636; in experiment [1] (first compound 0.253 µM) it was 0.657; in experiment [1] (first compound 0.8 µM), 0.642; in experiment [1] (first compound 2.53 µM) it was 0.705; in experiment [1] (first compound 8 µM), 0.537; in experiment [2] (first compound 0.05 µM), 0.966. Moreover, the relative viability came to 0.949 in experiment [2] (first compound 0.1581 µM); 1.05 in experiment [2] (first compound 0.5 µM); 0.977 in experiment [2] (first compound 1.581 µM); 0.939 in experiment [2] (first compound 5 µM); 0.994 in experiment [3] (first compound 0.005 µM); 1.01 in experiment [3] (first compound 0.01581 µM). In addition, the relative viability in experiment [3] (first compound 0.05 µM) is 1.05; in experiment [3] (first compound 0.1581 µM) it was 0.921; in experiment [3] (first compound 0.5 µM) it was 0.82; in experiment [4] (first compound 0.005 µM), 1.03; in experiment [4] (first compound 0.01581 µM), 1.01; in experiment [4] (first compound 0.05 µM) it was 1.04. For the same cell line, the relative viability in experiment [4] (first compound 0.1581 µM) was determined as 0.977; in experiment [4] (first compound 0.5 µM), 0.792.

For PC-3 [JPC-3], the relative viability in experiment [1] (first compound 0.08 µM) stood at 0.693; in experiment [1] (first compound 0.253 µM), 1.2; in experiment [1] (first compound 0.8 µM), 1.24; in experiment [1] (first compound 2.53 µM), 1.05; in experiment [1] (first compound 8 µM) it was 1; in experiment [2] (first compound 0.05 µM) it was 1.02. Also, the relative viability is 1.02 in experiment [2] (first compound 0.1581 µM); 1.05 in experiment [2] (first compound 0.5 µM); 0.999 in experiment [2] (first compound 1.581 µM); 0.989 in experiment [2] (first compound 5 µM); 0.764 in experiment [3] (first compound 0.005 µM); 0.739 in experiment [3] (first compound 0.01581 µM). Besides, the relative viability in experiment [3] (first compound 0.05 µM) was 0.759; in experiment [3] (first compound 0.1581 µM), 0.73; in experiment [3] (first compound 0.5 µM), 0.38; in experiment [4] (first compound 0.005 µM) it was 0.785; in experiment [4] (first compound 0.01581 µM), 0.818; in experiment [4] (first compound 0.05 µM), 0.951. Moreover, the relative viability in experiment [4] (first compound 0.1581 µM) was 0.788; in experiment [4] (first compound 0.5 µM), 0.456.

For PC-14, the relative viability stood at 0.282 in experiment [1] (first compound 0.08 µM); 0.227 in experiment [1] (first compound 0.253 µM); 0.264 in experiment [1] (first compound 0.8 µM); 0.253 in experiment [1] (first compound 2.53 µM); 0.273 in experiment [1] (first compound 8 µM); 1.04 in experiment [2] (first compound 0.05 µM). In addition, the relative viability was found to be 0.947 in experiment [2] (first compound 0.1581 µM); 0.981 in experiment [2] (first compound 0.5 µM); 0.995 in experiment [2] (first compound 1.581 µM); 0.976 in experiment [2] (first compound 5 µM); 0.99 in experiment [3] (first compound 0.005 µM); 0.772 in experiment [3] (first compound 0.01581 µM). For the same cell line, the relative viability in experiment [3] (first compound 0.05 µM) worked out at 0.679; in experiment [3] (first compound 0.1581 µM), 0.384; in experiment [3] (first compound 0.5 µM), 0.0679; in experiment [4] (first compound 0.005 µM), 0.976; in experiment [4] (first compound 0.01581 µM), 0.982; in experiment [4] (first compound 0.05 µM), 1.09. Also, the relative viability was 0.647 in experiment [4] (first compound 0.1581 µM) and 0.0883 in experiment [4] (first compound 0.5 µM).
